Here are results for 2 compounds from patent publication US20060270648A1, “USE OF POLYAMINES WITH ANTIBIOTICS” (priority 2005, published 2006).

Converted amounts (≈) assume the structure as drawn. Like-named read-outs stand apart in the source and are kept apart here.

One assay has as its system E. coli K10. Put plainly: MIC of carbenicillin against E. coli K10 with divalent ions or salt and polyamines. In kind it is cell-based. As to conditions: Escherichia coli, read-out: MICs to carbenicillin.
The test system of assay [1] is Salmonella typhimurium LT2. In words: microbe, parasite or virus in culture. Particulars: Salmonella enterica, read-out: MICs in the indicated concentrations (mM) of polyamines: No add.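 Further: Two-fold agar or broth dilution in Mueller-Hinton broth, MIC taken as lowest drug concentration without visible turbidity, tested alone or combined with polyamines.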
Procedure: (§1) Various strains of bacteria, including P. aeruginosa and e. coli were grown on Luria-Bertani (LB) agar/broth or Mueller-Hinton (MH) agar/broth. […] The antibiotics, chemicals, and/or polyamines were dissolved in double distilled water or solvent and thereafter filtered through a 0.4 μm disposable membranes.
(§2) The MIC values of the strains associated with various combinations of polyamines and antibiotics were determined using standard two-fold agar dilutions techniques and broth dilutions techniques in Mueller-Hinton broth. The lowest concentration of drug with no visible turbidity was deemed the MIC.
In assay [2] the test system is P. aeruginosa PAO1. In words: Time killing assay of P. aeruginosa PAO1 in human serum (FIG. 4). It is filed as cell-based. The method, then: Time-killing assays were performed for various bacteria samples. Briefly, the tested bacteria were grown to mid-log phase in Mueller-Hinton broth media. […] As a control group, cells were diluted in a sodium phosphate without any additional compounds. Aliquots were withdrawn at specific time intervals and spread on LB agar plates and incubated overnight at 37 C. The percent of colonies that survived were determined relative to the control.

Assay [3] deals with E. coli (K10, K12, C921-61). Put plainly: MIC of antibiotics against E. coli strains with or without polyamines (FIG. 3). As to conditions: E. coli K10, K12, C921-61 and S. typhimurium LT2. It is filed as cell-based.
Procedure: as §1, §2
Assay [4] has as its system MRSA Staphylococcus aureus 700699. In words: MIC of antibiotics against MRSA Staphylococcus aureus 700699 with or without spermine. It is filed as cell-based.
Assay [5] deals with methicillin resistant Staphylococcus aureus (MRSA) Mu50. In words: MIC of antibiotics against MRSA Mu50 with or without spermine. In kind it is cell-based.
Assay [6] relates to Salmonella typhimurium LT2.
Procedure: as §1, §2
Assay [7] deals with P. aeruginosa PAO1. Put plainly: MIC of antibiotics against P. aeruginosa PAO1 with or without polyamines. In kind it is cell-based.
Procedure: as §1, §2
Assay [8] concerns outer membrane permeability. In words: Outer membrane permeabilization assay (β-lactamase activity in whole cells or released into suspension). It is filed as cell-based. As to conditions: 20 mM (FIG. 7). The method, then:
The β-lactamase activity was determined by a spectrophotometric method using nitrocefin as a substrate. After the β-lactamase was extracted from the cells, the β-lactamase activity was monitored by absorbance changes in wavelength at 486 nm with a molar extinction coefficient of 20500. The extent of hydrolysis was a reflection of the amount of enzyme remaining uninhibited.
An outer membrane permeabilization assay was performed by examining the release of the chromosomally encoded β-lactamase. Briefly, stationary phase cells were diluted 1:59 into 20 mL pre-warmed MMP broth and cultured in an incubator at 350 rpm and at 37 C for 5 hours. After carbenicillin (200 μg/mL) was added to induce β-lactamase activity, the culture was incubated for additional 5 hours. The cells were harvested by centrifugation at 5,000×g for 10 minutes and washed once with 0.05M sodium phosphate buffer at pH 7.2. The cell pellet was resuspended in 5 mL of the same buffer and divided into 1 mL aliquots. […] […] The reaction mixtures were incubated at room temperature for 5 minutes and immediately centrifuged at full speed (15000×g) for 20 minutes and the supernatant was used for β-lactamase sources. β-lactamase activity was determined as described above using 300 μL of the supernatant.

Procedure for E. coli K10: as §1, §2

For the compound `CC1(C)S[C@@H]2[C@H](NC(=O)C(C(=O)O)c3ccccc3)C(=O)N2[C@H]1C(=O)O` (stereo partly drawn) [Carbenicillin], the MIC came out at 2 µg/mL in the assay with E. coli K10 (K10, MHB + 1 mM CaCl2, Spermidine (10 mM)); 1 µg/mL in the assay with E. coli K10 (K10, MHB + 1 mM CaCl2, Spermine (1 mM)); 16 µg/mL in the assay with E. coli K10 (K10, MHB + 1 mM CaCl2, no polyamine); 4 µg/mL with E. coli K10 (K10, MHB + 1 mM MgSO4, Spermidine (10 mM)); 1 µg/mL with E. coli K10 (K10, MHB + 1 mM MgSO4, Spermine (1 mM)); 16 µg/mL in the assay with E. coli K10 (K10, MHB + 1 mM MgSO4, no polyamine). The MIC in the assay on E. coli K10 (K10, MHB + 3 mM CaCl2, Spermidine (10 mM)) turned out to be 4 µg/mL; in the assay with E. coli K10 (K10, MHB + 3 mM CaCl2, Spermine (1 mM)), 4 µg/mL; in the assay with E. coli K10 (K10, MHB + 3 mM CaCl2, no polyamine), 16 µg/mL; in the assay with E. coli K10 (K10, MHB + 3 mM MgSO4, Spermidine (10 mM)) it was 4 µg/mL; with E. coli K10 (K10, MHB + 3 mM MgSO4, Spermine (1 mM)) it was 4 µg/mL; in the assay on E. coli K10 (K10, MHB + 3 mM MgSO4, no polyamine), 16 µg/mL. In addition, the MIC is 4 µg/mL with E. coli K10 (K10, MHB + 100 mM NaCl, Spermidine (10 mM)); 4 µg/mL in the assay with E. coli K10 (K10, MHB + 100 mM NaCl, Spermine (1 mM)); 16 µg/mL with E. coli K10 (K10, MHB + 100 mM NaCl, no polyamine); 4 µg/mL in the assay on E. coli K10 (K10, MHB + 150 mM NaCl, Spermidine (10 mM)); 4 µg/mL in the assay with E. coli K10 (K10, MHB + 150 mM NaCl, Spermine (1 mM)); 16 µg/mL with E. coli K10 (K10, MHB + 150 mM NaCl, no polyamine). The MIC was determined as 4 µg/mL with E. coli K10 (K10, MHB medium, no supplement, Spermidine (10 mM)); 1 µg/mL in the assay on E. coli K10 (K10, MHB medium, no supplement, Spermine (1 mM)); 16 µg/mL in the assay on E. coli K10 (K10, MHB medium, no supplement, no polyamine); 8 µg/mL (≈ 21.1 µM) in [1]; 256 µg/mL in assay [4] (Staphylococcus aureus, MRSA, no spermine, read-out: MICs in the absence or presence of spermine: No add); 256 µg/mL in assay [5] (Staphylococcus aureus, MRSA, no spermine, read-out: MICs in the presence or absence of spermine (1 mM): No add). Moreover, in the assay with P. aeruginosa PAO1 [2] (16 μg/mL carbenicillin alone), the “growth of P. aeruginosa PAO1 in human serum” value is “initial inhibition, this inhibition was followed by a full recovery of growth”. In addition, in the assay on P. aeruginosa PAO1 [2] (2 mM spermine added along with 16 μg/mL carbenicillin, 24 hours), the “percent of the inoculants killed in human serum” value is on record as “more than 99%”. Further, in [3], the “susceptibility with the combination of polyamines and antibiotics” value is “improved susceptibility”. The “MICs in the absence or presence of spermine: Spermine (1 mM)” value in assay [4] (with 1 mM spermine) worked out at 4 µg/mL. Further, the “MICs in the presence or absence of spermine (1 mM): Spermine” value in [5] (with 1 mM spermine) is 4 µg/mL. For the same compound, the “MICs in the indicated concentrations (mM) of polyamines: Spermine (1 mM)” value in assay [6] (with 1 mM spermine) is 1 µg/mL. The “MICs in the indicated concentrations (mM) of polyamines: Spermidine (20 mM)” value in assay [6] (with 20 mM spermidine) was 2 µg/mL.
As to `NCCCNCCCCNCCCN` [Spermine], the “MICs to carbenicillin in the indicated concentration of polyamines” value in the assay on P. aeruginosa PAO1 [7] (0 mM polyamine) was 64 µg/mL; with P. aeruginosa PAO1 [7] (0.5 mM polyamine) it was 16 µg/mL; in the assay on P. aeruginosa PAO1 [7] (1 mM polyamine), 4 µg/mL; in the assay with P. aeruginosa PAO1 [7] (5 mM polyamine), 4 µg/mL; in the assay on P. aeruginosa PAO1 [7] (10 mM polyamine), 4 µg/mL; with P. aeruginosa PAO1 [7] (20 mM polyamine), 4 µg/mL. In addition, in the assay on P. aeruginosa PAO1 [2] (presence or absence of 2 mM spermine), the “growth of P. aeruginosa PAO1 in human serum” value is “not affected”. The β-lactamase activity detected entry in assay [8] was “only a very low level”.
